One test deals with A549. Nature of the test: Antiproliferative activity against human A549 cells assessed as reduction in cell viability after 48 hrs by MTT assay. The test is classed as functional, cell-based. The following applies: A549, 48 h.
The test system of another test is DU-145. The experiment in a line: Antiproliferative activity against human DU-145 cells assessed as reduction in cell viability after 48 hrs by MTT assay. The test is classed as functional, cell-based. The conditions noted are these: DU-145, 48 h.
A short description of test [1]: Inhibition of Saccharomyces cerevisiae alpha-glucosidase using p-nitophenyl alpha […]D-glucoside incubated for 45 mins.
For the next test, the system named is L132. Nature of the test: Cytotoxicity against human L132 cells assessed as reduction in cell viability after 48 hrs by MTT assay. The format is cell-based. The following applies: L132, 48 h.
The next test concerns U-87 MG. The experiment in a line: Antiproliferative activity against human U87 cells assessed as reduction in cell viability after 48 hrs by MTT assay. The test is classed as functional, cell-based, U-87MG ATCC.
In the next test the test system is SiHa. The experiment in a line: Antiproliferative activity against human SiHa cells assessed as reduction in cell viability after 48 hrs by MTT assay. The test is classed as functional, cell-based.
Test [2] is described as follows: Inhibition of LPS-induced TNF-alpha expression in human U-937 cells preincubated for 1 hr followed by LPS addition and measured after 24 hrs by ELISA. The format is functional, cell-based.
Test [3] in a line: Inhibition of LPS-induced IL-1beta expression in human U-937 cells preincubated for 1 hr followed by LPS addition and measured after 24 hrs by ELISA. The test is classed as functional, cell-based.
A further test has as its system MDA-MB-231. The experiment in a line: Antiproliferative activity against human MDA-MB-231 cells assessed as reduction in cell viability after 48 hrs by MTT assay. The test is classed as functional, cell-based. The following applies: MDA-MB-231, 48 h.
The subject of the next test is PC-3. The experiment in a line: Antiproliferative activity against human PC3 cells assessed as reduction in cell viability after 48 hrs by MTT assay. The test is classed as functional, cell-based. The following applies: PC-3, 48 h.
The next test concerns HT-29. Nature of the test: Antiproliferative activity against human HT-29 cells assessed as reduction in cell viability after 48 hrs by MTT assay. The conditions noted are these: HT-29, 48 h. The test is classed as functional, cell-based.

With `C/C(=C\CC/C(C)=C/CC[C@@H]1[C@@]2(C)CCC(=O)C(C)(C)[C@H]2CC[C@@]1(C)O)CC/C=C(\C)C(=O)OCc1cn(-c2ccc(C(C)(C)C)cc2)nn1`, the IC50 with A549 was > 150 µM; with DU-145 it was > 150 µM; in test [1], 12.6 µM; in the test with L132 it was 65.8 µM; in the test with U-87 MG, > 150 µM.

Consider `C/C(=C\CC/C(C)=C/CC[C@@H]1[C@@]2(C)CCC(=O)C(C)(C)[C@H]2CC[C@@]1(C)O)CC/C=C(\C)C(=O)OCc1cn(-c2ccccc2)nn1`, for which the IC50 in the test with A549 is > 150 µM; in the test with DU-145 it was 95.5 µM; in test [1] it was 43.5 µM; with L132, > 150 µM; in the test with SiHa, 149 µM; in test [2], 9.3 µM. The IC50 was 9.87 µM in test [3] and > 150 µM in the test with MDA-MB-231.

As for `C/C(=C\CC/C(C)=C/CC[C@@H]1[C@@]2(C)CCC(=O)C(C)(C)[C@H]2CC[C@@]1(C)O)CC/C=C(\C)C(=O)OCc1cn(C[C@@H]2O[C@H](n3ccc(=O)[nH]c3=O)[C@H]3OC(C)(C)O[C@H]32)nn1`, the IC50 with A549 is 15.3 µM; in the test on DU-145, > 150 µM; with L132 it was > 150 µM; in test [2], 8.1 µM; in test [3], 14.1 µM; in the test on MDA-MB-231, > 150 µM.

Take `C/C(=C\CC/C(C)=C/CC[C@@H]1[C@@]2(C)CCC(=O)C(C)(C)[C@H]2CC[C@@]1(C)O)CC/C=C(\C)C(=O)OCc1cn(-c2ccccc2F)nn1`: the IC50 in the test on A549, in the test on DU-145, in the test on L132 and with MDA-MB-231 was > 150 µM in each case.

As to `C/C(=C\CC/C(C)=C/CC[C@@H]1[C@@]2(C)CCC(=O)C(C)(C)[C@H]2CC[C@@]1(C)O)CC/C=C(\C)C(=O)OCc1cn(-c2ccc(F)cc2)nn1`, the IC50 with A549, in the test on DU-145, in the test with L132 and in the test with U-87 MG was > 150 µM throughout.

On to `C/C(=C\CC/C(C)=C/CC[C@@H]1[C@@]2(C)CCC(=O)C(C)(C)[C@H]2CC[C@@]1(C)O)CC/C=C(\C)C(=O)OCc1cn(-c2cccc(C)c2)nn1`, for which the IC50 in the test on A549 is > 150 µM; in the test with DU-145, 137 µM; in test [1], 13.4 µM; in the test with L132, > 150 µM; in the test with SiHa, > 150 µM.

With `C[C@H]1O[C@H](O[C@H]2[C@H](O)[C@@H](O)[C@@H](O[C@H]3[C@H](O)[C@@H](O)C(O)O[C@@H]3CO)O[C@@H]2CO)[C@H](O)[C@@H](O)[C@@H]1N[C@H]1C=C(CO)[C@@H](O)[C@H](O)[C@H]1O` (some centres not stated) [ACARBOSE], in test [1], the IC50 stood at 2120 µM.

Consider `C#CCOC(=O)/C(C)=C/CC/C(C)=C/CC/C(C)=C/CC[C@@H]1[C@@]2(C)CCC(=O)C(C)(C)[C@H]2CC[C@@]1(C)O`, for which the IC50 with A549 is 45.1 µM; with DU-145 it was 46.1 µM; in the test with PC-3 it was 18.9 µM; in the test on U-87 MG it was > 150 µM; with MDA-MB-231, 114 µM; with HT-29 it was 27.4 µM.

As to `C/C(=C\CC/C(C)=C/CC[C@@H]1[C@@]2(C)CCC(=O)C(C)(C)[C@H]2CC[C@@]1(C)O)CC/C=C(\C)C(=O)OCc1cn(-c2cccc(F)c2)nn1`, the IC50 in the test on A549 is 124 µM; with DU-145, > 150 µM; in [1] it was 4.12 µM; in the test on U-87 MG, > 150 µM; with SiHa, > 150 µM; in the test on MDA-MB-231, 144 µM.

Take `C/C(=C\CC/C(C)=C/CC[C@@H]1[C@@]2(C)CCC(=O)C(C)(C)[C@H]2CC[C@@]1(C)O)CC/C=C(\C)C(=O)OCc1cn(-c2cccc(Br)c2)nn1`: the IC50 in the test on A549, in the test on DU-145 and in the test with L132 was > 150 µM in each case.

Consider `C/C(=C\CC/C(C)=C/CC[C@@H]1[C@@]2(C)CCC(=O)C(C)(C)[C@H]2CC[C@@]1(C)O)CC/C=C(\C)C(=O)OCc1cn(-c2ccc(Cl)cc2)nn1`, for which the IC50 in the test with A549 is > 150 µM; in the test on DU-145, > 150 µM; with L132, > 150 µM; in test [2], 9.12 µM; in test [3] it was 66.6 µM.

Regarding `C/C(=C\CC/C(C)=C/CC[C@@H]1[C@@]2(C)CCC(=O)C(C)(C)[C@H]2CC[C@@]1(C)O)CC/C=C(\C)C(=O)OCc1cn(-c2ccccc2Br)nn1`, the IC50 in the test with A549, in the test on DU-145, in the test on L132 and in the test on MDA-MB-231 was > 150 µM throughout.

`COc1ccc(-n2cc(COC(=O)/C(C)=C/CC/C(C)=C/CC/C(C)=C/CC[C@@H]3[C@@]4(C)CCC(=O)C(C)(C)[C@H]4CC[C@@]3(C)O)nn2)cc1`: the IC50 is > 150 µM with A549, 135 µM in the test on DU-145, > 150 µM in the test with L132 and > 150 µM in the test on MDA-MB-231.

Consider `C/C(=C\CC/C(C)=C/CC[C@@H]1[C@@]2(C)CCC(=O)C(C)(C)[C@H]2CC[C@@]1(C)O)CC/C=C(\C)C(=O)OCc1cn(-c2ccc(F)c(Cl)c2)nn1`, for which the 50% inhibitory concentration (IC50) is > 150 µM with A549; > 150 µM in the test with DU-145; 10.1 µM in test [1]; > 150 µM in the test on L132; 22.9 µM in the test with PC-3; 7.83 µM in test [2]. For the same compound, it took 15.8 µM to reach half-maximal inhibition in test [3] (IC50).

As for `C/C(=C\CC/C(C)=C/CC[C@@H]1[C@@]2(C)CCC(=O)C(C)(C)[C@H]2CC[C@@]1(C)O)CC/C=C(\C)C(=O)OCc1cn(-c2cccc(C(F)(F)F)c2)nn1`, the IC50 was > 150 µM in the test with A549, > 150 µM in the test on DU-145, 13.4 µM in [1] and > 150 µM in the test with MDA-MB-231.

As for `C/C(=C\CC/C(C)=C/CC[C@@H]1[C@@]2(C)CCC(=O)C(C)(C)[C@H]2CC[C@@]1(C)O)CC/C=C(\C)C(=O)OCc1cn(-c2ccc(C(F)(F)F)cc2)nn1`, the IC50 in the test on A549, with L132 and in the test with MDA-MB-231 was > 150 µM each time.

Take `C/C(=C\CC/C(C)=C/CC[C@@H]1[C@@]2(C)CCC(=O)C(C)(C)[C@H]2CC[C@@]1(C)O)CC/C=C(\C)C(=O)OCc1cn(-c2ccc(C)cc2)nn1`: the IC50 with A549, in the test with DU-145 and in the test with L132 was > 150 µM each time.

Take `C/C(=C\CC/C(C)=C/CC[C@@H]1[C@@]2(C)CCC(=O)C(C)(C)[C@H]2CC[C@@]1(C)O)CC/C=C(\C)C(=O)OCc1cn(-c2ccc(Br)cc2)nn1`: the half-inhibitory concentration (IC50) with A549 is > 150 µM; in the test with DU-145, > 150 µM; in test [1], 11.3 µM; in the test on L132, > 150 µM; in the test on U-87 MG, > 150 µM.

Regarding `C[C@]12C=CC(=O)C=C1CC[C@@H]1[C@@H]2[C@@H](O)C[C@@]2(C)[C@H]1CC[C@]2(O)C(=O)CO` [PREDNISOLONE], the figures for the IC50 in test [2] and in test [3] were 0.64 µM and 0.44 µM, respectively.

Take `C/C(=C\CC/C(C)=C/CC[C@@H]1[C@@]2(C)CCC(=O)C(C)(C)[C@H]2CC[C@@]1(C)O)CC/C=C(\C)C(=O)OCc1cn(-c2cccc([N+](=O)[O-])c2)nn1`: the IC50 with A549 is > 150 µM; in the test with DU-145, > 150 µM; in [1], 2.77 µM; in the test with PC-3, 24.8 µM; in the test with U-87 MG it was 134 µM.

Consider `COc1ccccc1-n1cc(COC(=O)/C(C)=C/CC/C(C)=C/CC/C(C)=C/CC[C@@H]2[C@@]3(C)CCC(=O)C(C)(C)[C@H]3CC[C@@]2(C)O)nn1`, for which the IC50 in the test on A549 is > 150 µM; in the test on DU-145, > 150 µM; in the test on L132, > 150 µM; in [2], 11.7 µM; in test [3] it was 9.06 µM; in the test with MDA-MB-231 it was > 150 µM.

`COc1cccc(-n2cc(COC(=O)/C(C)=C/CC/C(C)=C/CC/C(C)=C/CC[C@@H]3[C@@]4(C)CCC(=O)C(C)(C)[C@H]4CC[C@@]3(C)O)nn2)c1`: the IC50 in the test on A549 was > 150 µM; in the test on DU-145, > 150 µM; in test [1], 17.6 µM.

Take `C/C(=C\CC/C(C)=C/CC[C@@H]1[C@@]2(C)CCC(=O)C(C)(C)[C@H]2CC[C@@]1(C)O)CC/C=C(\C)C(=O)OCc1cn(-c2ccccc2Cl)nn1`: the IC50 in the test on A549 is > 150 µM; with DU-145, > 150 µM; in test [1], 106 µM; with L132, > 150 µM; in test [2], 9.58 µM; in test [3], 8.95 µM. For the same compound, in the test on MDA-MB-231, the IC50 was > 150 µM.

As to `C/C(=C\CC/C(C)=C/CC[C@@H]1[C@@]2(C)CCC(=O)C(C)(C)[C@H]2CC[C@@]1(C)O)CC/C=C(\C)C(=O)OCc1cn(-c2ccccc2C)nn1`, the IC50 in the test with A549, in the test with DU-145, with L132 and with MDA-MB-231 was > 150 µM each time.

For the compound `C/C(=C\CC/C(C)=C/CC[C@@H]1[C@@]2(C)CCC(=O)C(C)(C)[C@H]2CC[C@@]1(C)O)CC/C=C(\C)C(=O)OCc1cn(-c2cccc(Cl)c2)nn1`, the IC50 in the test on A549 amounted to 147 µM; in the test on DU-145 it was 103 µM; in test [1] it was 7.91 µM; in the test on L132, 94.2 µM; in the test on U-87 MG, 91.8 µM; in the test on SiHa, 111 µM. Further, in the test with MDA-MB-231, the IC50 came out at 103 µM.

For `C/C(=C\CC/C(C)=C/CC[C@@H]1[C@@]2(C)CCC(=O)C(C)(C)[C@H]2CC[C@@]1(C)O)CC/C=C(\C)C(=O)OCc1cn(-c2ccccc2C(F)(F)F)nn1`, the half-maximal inhibitory concentration (IC50) is > 150 µM in the test with A549; > 150 µM in the test on DU-145; 14.5 µM in [1]; > 150 µM in the test on L132; > 150 µM with MDA-MB-231.
